Experimental data from the NIST ThermoML archive (doi:10.1016/j.tca.2016.03.002).
± gives the expanded uncertainty stated by the source.

Assay: refractive index (Na D-line) (dimensionless); xn = mol fraction of the nth substance listed
Conditions: 100 kPa, Liquid, Standard Abbe refractometry

NC1CCCCC1 [cyclohexylamine] + CO
refractive index (293.15 K, x2 = 0): 1.45934 ± 0.0044
refractive index (293.15 K, x2 = 0.0702): 1.45717 ± 0.0044
refractive index (293.15 K, x2 = 0.1177): 1.45561 ± 0.0044
refractive index (293.15 K, x2 = 0.2006): 1.45245 ± 0.0044
refractive index (293.15 K, x2 = 0.3049): 1.44774 ± 0.0044
refractive index (293.15 K, x2 = 0.4041): 1.44199 ± 0.0043
refractive index (293.15 K, x2 = 0.4986): 1.43478 ± 0.0043
refractive index (293.15 K, x2 = 0.5392): 1.43072 ± 0.0043
refractive index (293.15 K, x2 = 0.597): 1.42424 ± 0.0043
refractive index (293.15 K, x2 = 0.6609): 1.41597 ± 0.0043
refractive index (293.15 K, x2 = 0.7024): 1.40945 ± 0.0043
refractive index (293.15 K, x2 = 0.7999): 1.39047 ± 0.0042
refractive index (293.15 K, x2 = 0.8572): 1.37655 ± 0.0042
refractive index (293.15 K, x2 = 0.8985): 1.36493 ± 0.0041
refractive index (293.15 K, x2 = 0.9032): 1.36365 ± 0.0041
refractive index (293.15 K, x2 = 0.949): 1.34836 ± 0.0041
refractive index (298.15 K, x2 = 0): 1.45663 ± 0.0044
refractive index (298.15 K, x2 = 0.0702): 1.45462 ± 0.0044
refractive index (298.15 K, x2 = 0.1177): 1.45309 ± 0.0044
refractive index (298.15 K, x2 = 0.2006): 1.45014 ± 0.0044
refractive index (298.15 K, x2 = 0.3049): 1.44542 ± 0.0043
refractive index (298.15 K, x2 = 0.4041): 1.43954 ± 0.0043
refractive index (298.15 K, x2 = 0.4986): 1.43243 ± 0.0043
refractive index (298.15 K, x2 = 0.5392): 1.42852 ± 0.0043
refractive index (298.15 K, x2 = 0.597): 1.42256 ± 0.0043
refractive index (298.15 K, x2 = 0.6609): 1.41393 ± 0.0043
refractive index (298.15 K, x2 = 0.7024): 1.40787 ± 0.0042
refractive index (298.15 K, x2 = 0.7999): 1.38877 ± 0.0042
refractive index (298.15 K, x2 = 0.8535): 1.3759 ± 0.0042
refractive index (298.15 K, x2 = 0.8572): 1.37494 ± 0.0042
refractive index (298.15 K, x2 = 0.8985): 1.36313 ± 0.0041
refractive index (298.15 K, x2 = 0.949): 1.34625 ± 0.0041
refractive index (303.15 K, x2 = 0): 1.45325 ± 0.0044
refractive index (303.15 K, x2 = 0.0702): 1.45212 ± 0.0044
refractive index (303.15 K, x2 = 0.1177): 1.45064 ± 0.0044
refractive index (303.15 K, x2 = 0.2006): 1.44761 ± 0.0044
refractive index (303.15 K, x2 = 0.3049): 1.4431 ± 0.0043
refractive index (303.15 K, x2 = 0.4041): 1.43715 ± 0.0043
refractive index (303.15 K, x2 = 0.4986): 1.42999 ± 0.0043
refractive index (303.15 K, x2 = 0.5392): 1.42613 ± 0.0043
refractive index (303.15 K, x2 = 0.597): 1.42012 ± 0.0043
refractive index (303.15 K, x2 = 0.6609): 1.41198 ± 0.0043
refractive index (303.15 K, x2 = 0.7024): 1.40569 ± 0.0042
refractive index (303.15 K, x2 = 0.746): 1.39807 ± 0.0042
refractive index (303.15 K, x2 = 0.7999): 1.38677 ± 0.0042
refractive index (303.15 K, x2 = 0.8572): 1.37247 ± 0.0042
refractive index (303.15 K, x2 = 0.9032): 1.35944 ± 0.0041
refractive index (303.15 K, x2 = 0.949): 1.3444 ± 0.0041
